The source made the active and inactive calls. No cut-off for these calls is given here.
How the values were obtained:
[1] = test system: Staphylococcus aureus; assay: Antibacterial activity against methicillin-resistant Staphylococcus aureus at 100 ug/disc; format: functional, organism-based
[2] = test system: L1210; assay: Cytotoxicity against mouse L1210 cells at 25 ppm; format: functional

| Structure (SMILES) | Activity [1] | inhibition at 25 ppm [2] | Activity [2] |
| --- | --- | --- | --- |
| C[C@H](O)/C=C/[C@@](O)(CO)[C@@H]1O[C@H]1C [ASPINONENE] | inactive | 27% | – |
| CC(=O)/C=C/C(=C/[C@H](C)O)CO | inactive | – | – |
| C[C@H](O)CC1=C[C@H](O)[C@@H](C)OC1=O | inactive | – | – |
| CO[C@](C(=O)O[C@@H](C)CC1=C[C@H](O)[C@@H](C)OC1=O)(c1ccccc1)C(F)(F)F | – | 25% | – |
| C[C@H](O)/C=C(/C=C/[C@@H](C)O)CO | inactive | – | inactive |
| C[C@H](O)/C=C(/C=C/[C@H](C)O)CO | inactive | – | – |

Reference: ChEMBL document CHEMBL1141350, “Pentaketides relating to aspinonene and dihydroaspyrone from a marine-derived fungus, Aspergillus ostianus” (2007)
